# Measurements as given in ChEMBL document CHEMBL1127385, “Synthesis and diuretic activity of alkyl- and arylguanidine analogs of N,N'-dicyclohexyl-4-morpholinecarboxamidine in rats and dogs” (J Med Chem, 1994).
# Experiments:
# [1] = test system: Rattus norvegicus; experiment: Total electrolytic excretion of chlorine in urine of rats after peroral administration of 84.5 uM/Kg of drug; assay type: ADME, organism-based; settings: in vivo, po
# [2] = test system: Rattus norvegicus; experiment: Total electrolytic excretion of chlorine in urine of rats after peroral administration of 28.2 uM/Kg of drug; assay type: ADME, organism-based; settings: in vivo, po
# [3] = test system: Rattus norvegicus; experiment: Total electrolytic excretion of chlorine in urine of rats after peroral administration of 282 uM/Kg of drug; assay type: ADME, organism-based; settings: in vivo, po
# [4] = test system: Rattus norvegicus; experiment: Total electrolytic excretion of potassium in urine of rats after peroral administration of 84.5 uM/Kg of drug; assay type: ADME, organism-based; settings: in vivo, po
# [5] = test system: Rattus norvegicus; experiment: Total electrolytic excretion of potassium in urine of rats after peroral administration of 28.2 uM/Kg of drug; assay type: ADME, organism-based; settings: in vivo, po
# [6] = test system: Rattus norvegicus; experiment: Total electrolytic excretion of potassium in urine of rats after peroral administration of 282 uM/Kg of drug; assay type: ADME, organism-based; settings: in vivo, po
# [7] = test system: Rattus norvegicus; experiment: Total electrolytic excretion of sodium in urine of rats after peroral administration of 84.5 uM/Kg of drug; assay type: ADME, organism-based; settings: in vivo, po
# [8] = test system: Rattus norvegicus; experiment: Tested for the diuretic activity by measuring the urinary volume after peroral administering 84.5 uM/Kg of drug in rats; assay type: ADME, organism-based, Urine; settings: in vivo, po
# [9] = test system: Rattus norvegicus; experiment: Total electrolytic excretion of sodium in urine of rats after peroral administration of 28.2 uM/Kg of drug; assay type: ADME, organism-based; settings: in vivo, po
# [10] = test system: Rattus norvegicus; experiment: Total electrolytic excretion of sodium in urine of rats after peroral administration of 282 uM/Kg of drug; assay type: ADME, organism-based; settings: in vivo, po
# [11] = test system: Rattus norvegicus; experiment: Tested for the diuretic activity by measuring the urinary volume after peroral administering 28.2 uM/Kg of drug in rats; assay type: ADME, organism-based, Urine; settings: in vivo, po
# [12] = test system: Rattus norvegicus; experiment: Tested for the diuretic activity by measuring the urinary volume after peroral administering 282 uM/Kg of drug in rats; assay type: ADME, organism-based, Urine; settings: in vivo, po
# [13] = test system: Rattus norvegicus; experiment: Ratio of Total electrolytic excretion of sodium and potassium in urine of rats after peroral administration of 28.2 uM/Kg of drug; assay type: ADME, organism-based; settings: in vivo, po
# [14] = test system: Rattus norvegicus; experiment: Ratio of Total electrolytic excretion of sodium and potassium in urine of rats after peroral administration of 282 uM/Kg of drug; assay type: ADME, organism-based; settings: in vivo, po
# [15] = test system: Rattus norvegicus; experiment: Ratio of Total electrolytic excretion of sodium and potassium in urine of rats after peroral administration of 84.5 uM/Kg of drug; assay type: ADME, organism-based; settings: in vivo, po
# [16] = test system: Rattus norvegicus; experiment: Total electrolytic excretion of chlorine in urine of rats after peroral administration of 97.1 uM/Kg of drug; assay type: ADME, organism-based; settings: in vivo, po
# [17] = test system: Rattus norvegicus; experiment: Total electrolytic excretion of chlorine in urine of rats after peroral administration of 324 uM/Kg of drug; assay type: ADME, organism-based; settings: in vivo, po
# [18] = test system: Rattus norvegicus; experiment: Total electrolytic excretion of potassium in urine of rats after peroral administration of 97.1 uM/Kg of drug; assay type: ADME, organism-based; settings: in vivo, po
# [19] = test system: Rattus norvegicus; experiment: Total electrolytic excretion of potassium in urine of rats after peroral administration of 32.4 uM/Kg of drug; assay type: ADME, organism-based; settings: in vivo, po
# [20] = test system: Rattus norvegicus; experiment: Total electrolytic excretion of potassium in urine of rats after peroral administration of 324 uM/Kg of drug; assay type: ADME, organism-based; settings: in vivo, po
# [21] = test system: Rattus norvegicus; experiment: Total electrolytic excretion of sodium in urine of rats after peroral administration of 97.1 uM/Kg of drug; assay type: ADME, organism-based; settings: in vivo, po
# [22] = test system: Rattus norvegicus; experiment: Tested for the diuretic activity by measuring the urinary volume after peroral administering 97.1 uM/Kg of drug in rats; assay type: ADME, organism-based, Urine; settings: in vivo, po
# [23] = test system: Rattus norvegicus; experiment: Tested for the diuretic activity by measuring the urinary volume after peroral administering 32.4 uM/Kg of drug in rats; assay type: ADME, organism-based, Urine; settings: in vivo, po
# [24] = test system: Rattus norvegicus; experiment: Tested for the diuretic activity by measuring the urinary volume after peroral administering 324 uM/Kg of drug in rats; assay type: ADME, organism-based, Urine; settings: in vivo, po
# [25] = test system: Rattus norvegicus; experiment: Total electrolytic excretion of sodium in urine of rats after peroral administration of 32.4 uM/Kg of drug; assay type: ADME, organism-based; settings: in vivo, po
# [26] = test system: Rattus norvegicus; experiment: Total electrolytic excretion of sodium in urine of rats after peroral administration of 324 uM/Kg of drug; assay type: ADME, organism-based; settings: in vivo, po
# [27] = test system: Rattus norvegicus; experiment: Ratio of Total electrolytic excretion of sodium and potassium in urine of rats after peroral administration of 32.4 uM/Kg of drug; assay type: ADME, organism-based; settings: in vivo, po
# [28] = test system: Rattus norvegicus; experiment: Ratio of Total electrolytic excretion of sodium and potassium in urine of rats after peroral administration of 324 uM/Kg of drug; assay type: ADME, organism-based; settings: in vivo, po
# [29] = test system: Rattus norvegicus; experiment: Ratio of Total electrolytic excretion of sodium and potassium in urine of rats after peroral administration of 97.1 uM/Kg of drug; assay type: ADME, organism-based; settings: in vivo, po
# [30] = test system: Rattus norvegicus; experiment: Ratio of Total electrolytic excretion of sodium and potassium in urine of rats after intravenous administration of 23.5 uM/Kg of drug; assay type: ADME, organism-based; settings: in vivo
# [31] = test system: Rattus norvegicus; experiment: Ratio of Total electrolytic excretion of sodium and potassium in urine of rats after intravenous administration of 70.6 uM/Kg of drug; assay type: ADME, organism-based; settings: in vivo
# [32] = test system: Rattus norvegicus; experiment: Total electrolytic excretion of chlorine in urine of rats after peroral administration of 32.4 uM/Kg of drug; assay type: ADME, organism-based; settings: in vivo, po
structure (smiles),measurement,setting,value
C1CCC(/N=C(/NC2CCCCC2)N2CCCCC2)CC1,Excretion Cl-,[1],1.46 m equiv
same,Excretion Cl-,[2],1.18 m equiv
same,Excretion Cl-,[3],0.77 m equiv
same,Excretion K+,[4],0.35 m equiv
same,Excretion K+,[5],0.29 m equiv
same,Excretion K+,[6],0.21 m equiv
same,Excretion Na+,[7],1.33 m equiv
same,V,[8],7.4 mL
same,Excretion Na+,[9],1.13 m equiv
same,Excretion Na+,[10],0.76 m equiv
same,V,[11],6.5 mL
same,V,[12],3.7 mL
same,Ratio,[13],4
same,Ratio,[14],3.7
same,Ratio,[15],3.8
c1ccc(C/N=C(/NCc2ccccc2)N2CCOCC2)cc1,Excretion Cl-,[16],1.14 m equiv
same,Excretion Cl-,[17],1.94 m equiv
same,Excretion K+,[18],0.31 m equiv
same,Excretion K+,[19],0.33 m equiv
same,Excretion K+,[20],0.42 m equiv
same,Excretion Na+,[21],1.13 m equiv
same,V,[22],7.3 mL
same,V,[23],5.4 mL
same,V,[24],13.8 mL
same,Excretion Na+,[25],0.77 m equiv
same,Excretion Na+,[26],2.25 m equiv
same,Ratio,[27],2.4
same,Ratio,[28],5.4
same,Ratio,[29],3.6
same,Ratio,[30],16.4
same,Ratio,[31],29.5
same,Excretion Cl-,[32],0.86 m equiv
